Consider one compound from patent US20250332143A1, “COMPOSITION COMPRISING ALOX5 INHIBITOR FOR PREVENTING OR TREATING SARCOPENIA” (PLUTO Inc., priority 2022, published 2025).

Assay [1] deals with Dex-treated C2C12 myotubes. Nature of the assay: SUNSET assay of protein synthesis in Dex-treated myotubes. The assay is classed as cell-based, mouse. The protocol: C2C12 murine skeletal muscle myoblasts were obtained from Koram Biotech (Republic of Korea). The cells were maintained in DMEM growth medium supplemented with 10% FBS, 1% penicillin, and streptomycin. When myoblasts proliferated to approximately 90%, they were differentiated into muscle fibers by treating them with DMEM differentiation medium supplemented with 2% HS, 1% penicillin, and streptomycin for 96 hours. Differentiated muscle fibers were treated with 10 μM Dex for 24 hours to induce sarcopenia. To evaluate the degree of differentiation of muscle cells, differentiating myoblasts were treated with the corresponding compound in differentiation medium for 24 or 48 hours. The concentration of intracellular protein was measured using the Bradford assay (Bio-Rad, USA, CA), and electrophoresis was performed by loading on 10% and 12% polyacrylamide gels. Afterwards, the separated proteins were transferred to a PVDF membrane, and the primary antibody used was diluted 1:1000 in TBS-T containing 5% skim milk and incubated overnight at 4° C. Secondary antibodies were diluted 1:2000 and incubated for 35 minutes at room temperature (RT). Band intensity was measured using ImageJ 1.52 software (National Institutes of Health, USA), and intracellular protein was normalized to α-tubulin.

Another assay relates to aged C57BL/6J mice. Nature of the assay: Sarcopenia model using aging mice. The assay is classed as in vivo, mouse. The protocol: Male C57BL/6J mice over 21 months of age were divided into 2 groups of 5 and treated with drugs as follows: 1) 0.5% carboxyl methyl with 6.73% DMSO (Vehicle group) and 2) 50 mg/kg of malotilate (at a concentration of 50 mg/kg, 0.5% carboxyl methyl with 6.73% DMSO) (Malotilate group). Those were administered orally daily for 4 weeks. Afterwards, the function and condition of the muscles were analyzed.
Grip strength was measured with the BIO-GS3 grip strength test meter (Bioseb, FL, USA). Grip strength was measured by placing the mouse on a grid and gently pulling it back with all four paws until the mouse fell off the grid. The trials were conducted with a time interval of 30 seconds, and the largest value among the three trials was selected as the representative muscle strength.
Muscle fatigue was measured from two different models using Rotarod (Ugo Basile, Italy). One is a constant speed model that measures how long movement can be continued on a cylinder rotating at a constant speed, and the other model is an acceleration model that measures how fast the mouse can continue movement when the speed of the cylinder increases at regular intervals. Mice were trained to adapt from 5 rpm to 15 rpm one day before measurement in the above two models.
Before sacrifice, mice were anesthetized by intraperitoneally administering 22 mg/kg Ketamine (Yuhan, Republic of Korea) and 10 mg/kg xylazine (Bayer, Republic of Korea) by IP injection, and then samples were collected. Quadriceps, gastrocnemius, tibialis anterior and soleus muscles were sampled and their weights were measured. The muscles sampled for immunohistostaining were cultured overnight at 4° C. with 4% paraformaldehyde, fixed, embedded in paraffin solution, and stored at −80° C. Cutting and hematoxylin & eosin staining were carried out at the Animal Research Facility of the Gwangju Institute of Science and Technology, Republic of Korea. Hematoxylin & eosin staining was performed using the kit (Merck, Germany). The cross-sectional area of muscle fibers was measured using ImageJ 1.48 software (National Institutes of Health, USA).
Immunohistochemical staining was performed using myosin heavy chain types 2A and 2B (DSHB, IA, USA) and anti-laminin antibody (Abcam, Cambirdge, UK). Counterstain was stained with 1 μM DAPI solution. The cross-sectional area of muscle fibers was visualized using LEICA DM 2500 (Leica, Germany) and then measured using ImageJ 1.48 software (National Institutes of Health, USA).

The target in another assay is T1, Alox5 (Homo sapiens, UniProt P09917).
T1 sequence (P09917 1-674): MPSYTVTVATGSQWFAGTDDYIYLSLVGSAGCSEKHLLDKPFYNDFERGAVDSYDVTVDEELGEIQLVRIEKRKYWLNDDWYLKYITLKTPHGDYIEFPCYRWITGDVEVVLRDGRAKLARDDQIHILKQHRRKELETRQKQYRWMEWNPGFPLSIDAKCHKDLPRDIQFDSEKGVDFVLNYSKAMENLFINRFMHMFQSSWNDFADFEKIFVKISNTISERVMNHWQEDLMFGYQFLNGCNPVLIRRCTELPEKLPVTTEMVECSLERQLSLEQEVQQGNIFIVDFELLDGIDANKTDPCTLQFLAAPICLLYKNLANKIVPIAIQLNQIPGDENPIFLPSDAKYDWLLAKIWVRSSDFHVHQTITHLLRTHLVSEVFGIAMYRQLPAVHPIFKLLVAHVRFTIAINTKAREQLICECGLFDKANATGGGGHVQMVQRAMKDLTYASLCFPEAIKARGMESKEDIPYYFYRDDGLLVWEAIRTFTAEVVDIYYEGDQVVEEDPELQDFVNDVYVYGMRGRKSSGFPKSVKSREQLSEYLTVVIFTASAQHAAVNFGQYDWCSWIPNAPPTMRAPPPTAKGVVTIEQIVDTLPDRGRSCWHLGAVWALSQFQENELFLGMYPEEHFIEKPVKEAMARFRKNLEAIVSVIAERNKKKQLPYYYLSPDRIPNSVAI
Conditions: cited from earlier work.

The mark [2] stands for this setting: aged mice, 50 mg/kg orally daily, 4 weeks.

As for `CC(C)OC(=O)C(C(=O)OC(C)C)=C1SC=CS1` [malotilate, Malotilate], in assay [1], the total protein synthesis entry is given as “restored”. Besides, in the assay on aged C57BL/6J mice (setting [2]), the grip strength result was “significantly increased”, the “mean latency to fall” value is “increased in malotilate-treated mice but did not reach statistical significance”, the quadriceps muscle mass result was “significantly increased” and the soleus muscle mass result is given as “significantly increased”. Also, in the assay with aged C57BL/6J mice (aged mice, immunohistology), the “CSA of fast twitch fibers (types IIA and IIB)” value is recorded as “preserves”. Besides, in the assay with aged C57BL/6J mice (aged mice, quadriceps), the “average muscle fiber cross-sectional area” value is “increased” and the “proportion of large myofibers (>5000 μm^2)” value is “much larger proportion”. Also, the skeletal muscle atrophy result with aged C57BL/6J mice (animal model of sarcopenia due to aging) is recorded as “inhibited”. For the same compound, at Alox5, the Alox5 inhibition selectivity entry is “selective inhibitor of Alox5”.
